Experimental data taken from paper PMC4795541, “A Rapid and Quantitative Flow Cytometry Method for the Analysis of Membrane Disruptive Antimicrobial Activity” (PLoS ONE, 2016).
In brackets after ≈: the same amount, converted by molar mass. Like-named read-outs stand apart in the source and are kept apart here. Marks after values point to notes of the source that are not given here. Where a SMILES comes first, the peptide text is derived from it. Where no end group is shown, it is not given here. [ ]: non-standard residue; d: D form. Phe(ol) = N[C@H](CO)Cc1ccccc1; Dab = NCC[C@H](N)C(=O)O; Dap = NC[C@H](N)C(=O)O; Aib = CC(C)(N)C(=O)O

Legend:
S. mutans Ingbritt [1] = test system: S. mutans Ingbritt
From the text: (§1) The bacterial strains; Fusobacterium nucleatum ATCC 25586, Streptococcus mutans Ingbritt, Staphylococcus aureus (MSSA) ATCC 29213; Staphylococcus aureus (MRSA) ATCC 43300; Enterococcus faecalis ATCC 29212; Enterobacter aerogenes ATCC 13048; Pseudomonas aeruginosa strain PAO1-LAC, ATCC 47085; Klebsiella pneumoniae ATCC 13883; Acinetobacter baumannii strain 2208, ATCC 19606; Escherichia coli ATCC 25922 lyophilised or glycerol stocks were obtained from the culture collection of the Oral Health Cooperative Research Centre, The Melbourne Dental School, University of Melbourne, Australia. These strains were selected for this study as they are widely used in antimicrobial studies and are considered to be important pathogens and major targets for antibiotic resistant studies. Bacteria were grown aerobically and maintained by passage at ambient temperature (E. coli, K. pneumoniae, A. baumannii and S. aureus strains) or at 37°C (P. aeruginosa, E. faecalis and E. aerogenes) on horse blood agar (10% v/v defibrinated horse blood, 4.4% w/v Oxoid Blood Agar Base No. 2). S. mutans and F. nucleatum were grown anaerobically (MK3 anaerobic workstation, Don Whitley Scientific Limited, England) and maintained by passage at 37°C on Todd Hewitt agar (3.6% w/v Oxoid Todd-Hewitt Broth, 1.5% w/v sucrose, 1.5% w/v BactoTM Agar, 0.8% w/v Oxoid Yeast Extract) or horse blood agar, respectively. For the antimicrobial peptide assays a 20 mL starter culture was produced by taking single colonies from blood or Todd Hewitt agar plates, respectively, to inoculate either: Luria Broth (LB; 1% w/v BactoTM Tryptone, 1% w/v NaCl, 0.5% w/v Oxoid Yeast Extract, pH 7.5, Thermo Scientific Pty, Ltd, Sydney, Australia) for bacteria; E. coli, K. pneumoniae, P. aeruginosa, A. baumannii, E. faecalis, E. aerogenes and S. aureus which were grown aerobically at 37°C, or Todd Hewitt broth (3.6% w/v Oxoid Todd-Hewitt Broth, 1.5% w/v sucrose, 0.8% w/v Oxoid Yeast 9 Extract) for S. mutans, or Brain Heart Infusion broth (BHI; 3.7% w/v Oxoid BHI, 0.05% w/v L-cysteine) for F. nucleatum which were both grown anaerobically at 37°C. After overnight incubation, 0.5–2.0 mL of the starter culture was used to inoculate the appropriate fresh broth (200 mL) and growth monitored at 650 nm using a spectrophotometer (model 275E; Perkin-Elmer, Sydney, Australia) with culture purity checked by microscopic examination and culture. Bacteria were harvested during late exponential growth phase and viability and bacteria/mL determined using a BacLight viability kit (Invitrogen, Sydney, Australia) and a Quanta SC-MPL flow cytometer (Beckman coulter Pty, Ltd, Sydney, Australia).
(§2) Antibacterial assays were undertaken to determinate the minimum inhibitory concentration (MIC), minimum bactericidal concentration (MBC) and minimum membrane disruptive concentration (MDC) of each of the antimicrobial peptides (AMP) and AMP analogues (S1 Table). For each bacterim a stock solution (2.5 × 10^6 cells/mL) in the respective media was made and an aliquot incubated with AMPs within 15 minutes from viable cell count and stock preparation. All AMPs were dissolved in DMSO and a 500 μM stock solution prepared by adding the respective media and serial dilutions (250–0.244 μM) of the AMP in media (100 μL/well) made just prior addition of bacteria. […] One hundred microliter aliquots of the bacterial stock solution (2.5 × 10^5 cells/well) were added to the AMP serial dilutions and incubated at 37°C for 90 min. Assay preparation and incubations were conducted in aerobic or anaerobic conditions dependent on the bacteria. Bacteria were also incubated in the absence of AMP to serve as a growth control for the assay. After the 90 minute incubation period the antimicrobial activity (MIC, MBC and MDC) was determined as follows;
(§3) For MIC the CLSI broth microdilution assay was followed as we have previously described.

F. nucleatum ATCC 25586 = test system: F. nucleatum ATCC 25586
From the text: as §1, §2, §3

S. mutans Ingbritt [2] = test system: S. mutans Ingbritt; remark: listed apart in the source
From the text: as §1, §2
For determination of MBC, the CLSI protocol was followed, with the modifications being that due to the rapid action of the AMPs the assay incubation time was shortened from 16–20 hours to 90 minutes.

[3] = S. mutans Ingbritt, 90 min peptide/bacteria incubation at 37°C, then growth at OD650, average of 3 assays ± SD
[4] = F. nucleatum ATCC 25586, 2.5 × 10^5 cells/well, 90 min peptide/bacteria incubation at 37°C, then growth at OD650, average of 3 assays ± SD
[5] = S. mutans Ingbritt, 90 min peptide/bacteria incubation, CFU on agar, ≥ 99.9% reduction, average of 3 assays ± SD

Row | Compound | MIC (S. mutans Ingbritt [1]; [3]) | MIC (F. nucleatum ATCC 25586; [4]) [µM] | MBC (S. mutans Ingbritt [2]; [5]) | MIC (S. mutans Ingbritt [1]; Ingbritt, 24 h) | MBC (S. mutans Ingbritt [2]; Ingbritt) | MIC (F. nucleatum ATCC 25586; ATCC 25586, 24 h) | MIC (S. mutans Ingbritt [1]; S. mutans Ingbritt, 90 min peptide/bacteria incubation at 37°C, then growth at OD650, average of 3 assays ± SD, listed as Native) [µM] | MIC (F. nucleatum ATCC 25586; F. nucleatum ATCC 25586, 2.5 × 10^5 cells/well, 90 min peptide/bacteria incubation at 37°C, then growth at OD650, average of 3 assays ± SD, listed as Native) [µM] | MBC (S. mutans Ingbritt [2]; S. mutans Ingbritt, 90 min peptide/bacteria incubation, CFU on agar, ≥ 99.9% reduction, average of 3 assays ± SD, listed as Native) [µM]
1 | CC(=O)NC(C)(C)C(=O)N1CCC[C@H]1C(=O)NC(C)(C)C(=O)N[C@@H](C)C(=O)NC(C)(C)C(=O)N[C@@H](C)C(=O)N[C@@H](CCC(N)=O)C(=O)NC(C)(C)C(=O)N[C@H](C(=O)NC(C)(C)C(=O)NCC(=O)N[C@@H](CC(C)C)C(=O)NC(C)(C)C(=O)N1CCC[C@H]1C(=O)N[C@H](C(=O)NC(C)(C)C(=O)NC(C)(C)C(=O)N[C@@H](CCC(=O)O)C(=O)N[C@@H](CCC(N)=O)C(=O)N[C@H](CO)Cc1ccccc1)C(C)C)C(C)C [Alamethicin] (Ac-[Aib]P[Aib]A[Aib]AQ[Aib]V[Aib]GL[Aib]PV[Aib][Aib]EQ[Phe(ol)]; N-terminus assumed) | 29.4 ± 8.2 µM (≈ 57.8 µg/mL) | 22.6 ± 12.7 (≈ 44.4 µg/mL) | 39.8 ± 0.3 µM (≈ 78.2 µg/mL) |  |  |  |  |  | 
2 | CC[C@H](C)[C@H](NC(=O)CN)C(=O)NCC(=O)N[C@@H](CCN)C(=O)N[C@@H](Cc1ccccc1)C(=O)N[C@@H](CC(C)C)C(=O)N[C@@H](Cc1c[nH]cn1)C(=O)N[C@@H](CO)C(=O)N[C@@H](C)C(=O)N[C@@H](CCN)C(=O)N[C@@H](CCN)C(=O)N[C@@H](Cc1ccccc1)C(=O)NCC(=O)N[C@@H](CCN)C(=O)N[C@@H](C)C(=O)N[C@@H](Cc1ccccc1)C(=O)N[C@H](C(=O)NCC(=O)N[C@@H](CCC(=O)O)C(=O)N[C@H](C(=O)N[C@@H](CCSC)C(=O)N[C@@H](CC(N)=O)C(=O)N[C@@H](CO)C(N)=O)[C@@H](C)CC)C(C)C [Magainin-Dab] (H-GIG[Dab]FLHSA[Dab][Dab]FG[Dab]AFVGEIMNS-NH2; N-terminus assumed) |  | 6.3 ± 0.5 (≈ 14.8 µg/mL) |  | >200^c μM | >200^c μM |  |  |  | 
3 | CC[C@H](C)[C@H](NC(=O)CN)C(=O)NCC(=O)N[C@@H](CN)C(=O)N[C@@H](Cc1ccccc1)C(=O)N[C@@H](CC(C)C)C(=O)N[C@@H](Cc1c[nH]cn1)C(=O)N[C@@H](CO)C(=O)N[C@@H](C)C(=O)N[C@@H](CN)C(=O)N[C@@H](CN)C(=O)N[C@@H](Cc1ccccc1)C(=O)NCC(=O)N[C@@H](CN)C(=O)N[C@@H](C)C(=O)N[C@@H](Cc1ccccc1)C(=O)N[C@H](C(=O)NCC(=O)N[C@@H](CCC(=O)O)C(=O)N[C@H](C(=O)N[C@@H](CCSC)C(=O)N[C@@H](CC(N)=O)C(=O)N[C@@H](CO)C(N)=O)[C@@H](C)CC)C(C)C [Magainin-Dap] (H-GIG[Dap]FLHSA[Dap][Dap]FG[Dap]AFVGEIMNS-NH2; N-terminus assumed) |  |  |  | >200^c μM | >200^c μM | 18.4±9.7^c μM |  |  | 
4 | GIGKFLHSAKKFGKAFVGEIMNS-NH2 [Magainin II] | 109.3 ± 20.4 µM | 10.2 ± 1.5 | 109 ± 20.2 µM |  |  |  | 123.4 ± 9.2 | 10.1 ± 0.6 | 117.1 ± 2.3
5 | GIGRFLHSARRFGRAFVGEIMNS-NH2 [Magainin-Arg] |  |  |  | 41.8±6.8^c μM | 37.3±1.9^c μM | 2.5±0.3^c μM |  |  | 
6 | GIGXFLHSAXXFGXAFVGEIMNS-CONH2 [Magainin-Orn] | >200^c μM | 13.1 ± 0.5 | >200^c μM |  |  |  |  |  | 
